PMC11134387, “Cancer-Stem-Cell Phenotype-Guided Discovery of a Microbiota-Inspired Synthetic Compound Targeting NPM1 for Leukemia” (JACS Au, 2024)
Values joined by “and” are separate entries in the source; they are usually repeats but may differ in a detail not shown here. Identical values can stand only once. “Also recorded” adds a separate entry of the source.

Key:
OCI-AML3 (NPM1 C+) = test: Cell viability dose-response in AML cell line (NPM1 C+); type: cell-based; details: Homo sapiens, OCI-AML-3; OCI-AML3, 48 h
Source text: (§1) One of the most paradigmatic diseases with critical involvement of CSCs is AML. Among the AML stem cell population, CD34+/CD38- are the only ones capable of inducing leukemia in vivo.[27] […] We focused on proteins that disappeared completely after treatment with the compound and whose concentration could be quantified in untreated samples. According to this profile, 340 proteins, including targets related with stemness and cancer, were identified (see Supplementary Excel file). Among them, nucleophosmin 1 (NPM1) especially attracted our attention, as it is one of the most common mutated proteins in AML.[28] To support that the inhibitory capacity of UCM-13369 observed in CSC cells (see Table S1) is mediated by NPM1, the compound was tested on OCI-AML3 and MOLM13 cell lines, as in vitro AML models bearing mutant (NPM1 C+) and wild-type (WT) protein, respectively.
(§2) The test compound was diluted in PBS.

[1] = system: human renal proximal tubule epithelial cells (hRPT Epi Cells); test: Dose-response viability in renal proximal tubule epithelial cells; type: cell-based; details: dose-response viability assay; listed as UCM-13369
Source text: Scale bar: 100 μm. (E ) Dose-response curve of UCM-13369 in human renal proximal

[2] = target: T1, NPM1 N-end (pentameric, WT) (Homo sapiens, UniProt P06748); test: Isothermal titration calorimetry, NPM1 N-end; type: binding; details: ITC, 25 °C
T1 construct: N-end pentameric domain (residues 1- 130); 6xHis (N); made in house; host or cells: E. coli BL21(DE3)
T1 sequence (P06748 1-130): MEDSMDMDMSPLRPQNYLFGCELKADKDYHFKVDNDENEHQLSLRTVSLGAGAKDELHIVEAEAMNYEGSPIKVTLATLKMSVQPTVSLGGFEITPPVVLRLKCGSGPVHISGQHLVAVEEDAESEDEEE
Source text: To confirm a direct interaction of UCM-13369 with NPM1 and to address which domain of the protein would be responsible for binding the compound, pure protein samples of the pentameric N-end domain of NPM1, along with the C-terminal DNA-binding domains of WT and mutant NPM1 C+, were used in calorimetry assays. […] This is indicative of a lower diversity in the chemical environment of amide protons consistent with the previously reported protein unfolding.[29] […] On the other hand, the pentameric construct of the NPM1 N-end, which lacks the AML-related region, yielded a much lower binding affinity (KD ca. 100 μM range, Figure 3D).
ITC experiments were performed in a Nano ITC Low Volume (TA Instruments) at 25 °C. […]
The purity of the protein samples was checked by SDS–PAGE analysis (Figure S3) and protein quantification was performed using the Bradford protein assay.5 NPM molar concentration was expressed as the pentameric form for NPM1 WT N-end and as a monomer for NPM1 C-end WT and mutant. […]
After extraction with acetonitrile and acidification, samples were desalted and concentrated with C18 tips. Mass spectra were recorded in a Hybrid Quadrupole-Orbitrap™ Mass Spectrometer (Thermo Scientific, Waltham, Massachusetts, USA)

MOLM13 (NPM1 WT) = test: Cell viability dose-response in AML cell line (NPM1 WT); type: cell-based; details: Homo sapiens, MOLM-13; MOLM13, 48 h
Source text: as §1, §2

[3] = system: primary HSCs from WT NPM1 AML patients; test: CD34+ liquid HSC short-term culture, WT NPM1 AML patients; type: cell-based; details: Homo sapiens, n = 3
Procedure: (§3) Considering the inhibitory capacity of UCM-13369 on AML cell lines (shown in Figure 3A), the therapeutic potential was assessed in primary CD34+ cells from AML patients. Two ex vivo models were used from AML patients and healthy donors: CD34+ liquid HSC (hematopoietic stem cell) culture as a short-term model and CFU-E (colony-forming unit–erythroid) as a midterm model.
(§4) The test compound was diluted in PBS. […]
(§5) Primary cells. 1x10^6/mL total mononuclear bone marrow cells (as source of CD34+ HSCs) of healthy donors and AML patients were used. They were cultured using Stem SpanTM supplement with pencillin/streptomycin (500 U/ml), TPO (10 µg/mL), SCF (10 µg/mL), FLT3 (10 µg/mL), IL-6 (10 µg/mL) and IL-3 (10 µg/mL). After 24 h fresh medium was added. After 72 h in maintenance cells were ready to start the assays. All cells wer e maintained at 37 °C in a humidified incubator in an atmosphere of 5% CO2. […]

[4] = system: primary HSCs from healthy donors; test: CD34+ liquid HSC short-term culture, healthy donors; type: cell-based; details: Homo sapiens
Procedure: as §3, §4, §5

## COc1ccc(C2Cc3[nH]c4ccccc4c3C(CCNCC3CC3)C2N)cc1 (stereo not drawn) [4b, 4-{2-[(Cyclopropylmethyl)amino]ethyl}-2-(4-methoxyphenyl)-2,3,4,9-tetrahydro-1H-carbazol-3-amine]
OCI-AML3 (NPM1 C+)
  IC50: 7.26 µM
[1]
  Toxicity in hRPT Epi Cells (in words): showed toxicity in kidney cells; also recorded: revealed toxicity
[2]
  Kd: 100 µM and ~100 µM
MOLM13 (NPM1 WT)
  IC50: 10.9 µM
[3]
  IC50: 3.77 µM
[4]
  IC50: 6.4 µM
